This is an account of results in patent US20090035758A1, “Method of Measurement of Micronucleated Erythrocyte Populations” (BECKMAN COULTER, INC., priority 2007, published 2009).

The test system of this data set is micronucleated reticulocytes (MNPCE) in mouse peripheral blood. Conditions: in vivo, 50 mg/kg, 24 h. The procedure:
200 to 300 μl of a peripheral blood sample was collected from a mouse using orbital veinipuncture into a test tube containing heparin. The sample was kept at room temperature for analysis.
10 μl of the anticoagulated blood sample was diluted with 290 μl of the isotonic diluent of Example 1 in a test tube. 10 μl of anti CD71-FITC monoclonal antibody at saturating concentration was added into the diluted blood, and the test tube was vortexed and then incubated at room temperature for 30 minutes. 20 μl of the diluted sample containing anti CD71-FITC antibody was taken into a second test tube, and 400 μl of the permeation reagent of Example 1 was added and vortexed immediately. The formed permeation sample mixture was incubated at room temperature for 10 minutes. […]
The final sample mixture was analyzed on a FC500 MCL cytometer (Beckman Coulter, Inc., Fullerton, Calif.). […]
Both FL1 and FL4 were in a logarithmic scale. FL1 and FL4 were the fluorescent signals of the final sample mixture detected at 525 nm and 675 nm, respectively. […]
A mouse was treated with methyl methane sulfonate with a dosage of 50 mg/Kg 24 hours prior to the blood collection. The peripheral blood was collected and processed as described in Example 2, and the final sample mixture was analyzed on the same FC500 MCL cytometer with the identical instrument setting.

As to `COS(C)(=O)=O` [methyl methane sulfonate], the “micronucleated reticulocytes (percentage of reticulocytes containing micronuclei)” value came out at 1.30%.
